From patent US9326927B2, “Use of cannabinoid compounds for stimulating melanogenesis” (L'OREAL, priority 2011, dated 2016)

Key:
[1] = tested on: Normal human epidermal melanocytes (NHEMs); experiment: Determination of the melanin content of the melanocytes (Example 1); format: cell-based; design: key to amount of melanin in NHEM cells, mean: fold of untreated control melanin amount (control = 1); settings: for effect on amount of melanin in the melanocytes (NHEMs), in words: 1 μM, by means of the CB1 receptor; for effect of receptor antagonist on the propigmenting effect of mAEA, in words: antagonist in combination with mAEA 1 μM (SR1 0.1 μM)
Method: Normal human epidermal melanocytes (NHEMs) isolated from foreskins and supplied by Promocell (Heidelberg, Germany) are cultured for 24 h at 37° C. in a humid atmosphere at 5% CO2 in an appropriate culture medium M2 (Promocell).
The AEA and the other compounds are added directly to the culture medium. Twenty-four hours after each treatment, the cell viability was measured using Trypan blue exclusion dye (Maccarone et al., 2003).
The mAEA, the AEA and the ACEA are tested in vitro at a concentration of 1 μM and compared. The mAEA is also used at this concentration when it is used in combination with SR1 at 0.1 μM.
Moreover, the mAEA was also tested, alone, at concentrations of 0.5, 1.0, 1.5, 2.0, 2.5 and 3.0 μM.
The amount of melanin present in the NHEM cells is measured according to a method known to those skilled in the art (Xiao et al., Arch Dermatol Res 2007; 299: 245-57). According to this method, the NHEM cells are treated with trypsin and washed twice with a phosphate buffered saline. The samples are then resuspended in 200 μl of MilliQ water, and 1 ml of an ethanol: ether mixture (1:1, vol/vol) is added in order to remove the opaque substances other than melanin. After 15 minutes, the samples are centrifuged at 600 g for 5 minutes. The pellet is air-dried and dissolved in 200 μl of 1 N sodium hydroxide. The samples are then heated at 80° C. for one hour and cooled.
The amount of melanin is determined by spectrophotometry at 450 nm using the standard melanin controls supplied by Sigma Chemical Co., so as to verify the linearity range of the test. The amount of melanin is expressed relative to the control.
The results given are the means, with their standard deviations, of 3 independent tests, each carried out in triplicate. They were compared by analysis of variance (ANOVA).

[2] = tested on: Primary human melanocytes (NHEMs); experiment: Melanin production in NHEMs (Example 4); format: cell-based; settings: 1 μM, 72 h
Method: (§1) Primary human melanocytes (NHEMs) were seeded into 24-well plates in the presence (coculture) of normal human epidermal keratinocytes (NHEKs) and then cultured for 24 h. The cells were then treated with nothing (negative control), IBMX (positive control, 200 μM), or methanandamide (mAEA, 1 μM).
(§2) After treatment, the cells were incubated for 72 h, all the experimental conditions having been carried out in triplicate.
(§3) After 72 h of incubation, the cells were lysed with a 0.5 N NaOH solution in order to extract the melanin.
(§4) Quantification of the pigmentation by microscopic quantification of the melanin is then carried out and makes it possible to illustrate a propigmenting activity of the test compound.
(§5) The optical density of the samples was measured at 405 nm, with reference to an exogenous melanin range (standard melanin curve 0.39 to 100 μg/ml).

[3] = tested on: pigmented reconstructed epidermises (normal human melanocytes and keratinocytes); experiment: Propigmenting effect on pigmented reconstructed epidermises (PREs), melanin quantified by image analysis (Example 3); format: cell-based
Method: Pigmented epidermises are reconstructed on a collagen support (BPER [biodressing for reconstructed epidermis]) using normal human melanocytes and keratinocytes.
The epidermises are obtained after 8 days of reconstruction; the melanocytes chosen are of estimated phototype IV.1.
Some epidermises are treated daily with the placebo, others with the test product mAEA at different concentrations (1 μM and 3 μM).
Each experimental condition is performed in quadruplicate.
The histological quality of the epidermises after treatment is evaluated on histological sections after HES staining in order to determine the impact of the treatment on the epidermises. Also, the physiology of the melanocytes is studied in order to detect any melano-cytotoxicity. If no histological modification nor any melanotoxic effect of the product evaluated is noted, the pigmentation is quantified by quantifying the melanin on histological sections by image analysis.
as §4
The melanin present in the epidermis is stained on histological sections (Fontana Masson staining) and then quantified by image analysis. For this, each epidermis is photographed over its entire width using a microscope. Approximately 10 images are acquired per epidermis (white light, ×20 magnification).
The area taken up by melanin is quantified using custom-designed image analysis software. Briefly, each image is segmented into 4 zones according to their color (lumen, stratum corneum, live epidermis and BPER). […] The pixels occupied by the melanin in the whole epidermis or the live layers are then quantified.
This quantification takes into account the area taken up by the melanin and also the average localization of the melanin in the epidermis.
The results below are expressed as percentage relative stimulation with respect to the control cultured in standard coculture medium.

[4] = tested on: NHEKs+NHEMs coculture; experiment: Melanin production in NHEM-NHEK coculture (Example 4); format: cell-based, human; settings: 72 h
Method: as §1, §2, §3, §4, §5

[5] = expressed relative to the control, compound alone at 1 μM, mean of 3 independent tests

In the case of `CCCCC/C=C\C/C=C\C/C=C\C/C=C\CCCC(=O)NCCCl` [ACEA, Arachidonyl-2′-chloroethylamide], the “effect on amount of melanin in the melanocytes (NHEMs), in words” value (shortened to “effect on amount of melanin”) [1] is reported as “significantly increase the amount of melanin” and the “amount of melanin in NHEM cells, mean” value [1, 5] is reported as 2.14.

In the case of `CCCCC/C=C\C/C=C\C/C=C\C/C=C\CCCC(=O)NCCO` [Anandamide, N-arachidonoylethanolamine], the “effect on amount of melanin” value [1] is reported as “significantly increase the amount of melanin” and the “amount of melanin in NHEM cells, mean” value [1, 5] is reported as 2.09.

`Cc1c(C(=O)NN2CCCCC2)nn(-c2ccc(Cl)cc2Cl)c1-c1ccc(Cl)cc1` [SR1, N-piperidino-5-(4-chlorophenyl)-1-(2,4-dichlorophenyl)-4-methyl-3-pyrazole carboxamide, reference compound] was tested, and the “effect of receptor antagonist on the propigmenting effect of mAEA, in words” value [1] was “prevents mAEA from having its propigmenting effect”.

For `CCCCC/C=C\C/C=C\C/C=C\C/C=C\CCCC(=O)NC(C)CO` (stereo not drawn) [mAEA, R(+)-arachidonyl-1′-hydroxy-2′-propylamide], the “effect on amount of melanin” value [1] was “significantly increase the amount of melanin”, the “dose/effect relationship of melanin production in NHEM cells, in words” value ([1]; 0.5 to 3.0 μM) was “dose-dependent increase in melanin production” and the “amount of melanin in NHEM cells, mean” value [1, 5] was 2.80. For the same compound, the “amount of melanin in NHEM cells, mean” value ([1]; relative to the control, mAEA 1 μM in combination with SR1 0.1 μM) was 1.22, the “amount of melanin in NHEM cells, mean” value ([1]; relative to the control, mAEA alone 0.5 μM) was 1.75 and the “amount of melanin in NHEM cells, mean” value ([1]; relative to the control, mAEA alone 1.5 μM) was 3.30. For the same compound, the “amount of melanin in NHEM cells, mean” value ([1]; relative to the control, mAEA alone 2 μM) was 3.34, the “amount of melanin in NHEM cells, mean” value ([1]; relative to the control, mAEA alone 2.5 μM) was 3.75 and the “amount of melanin in NHEM cells, mean” value ([1]; relative to the control, mAEA alone 3 μM) was 4.13. For the same compound, the “amount of melanin in NHEM cells, mean” value ([1]; relative to the control, mAEA in combination with SR2) was 2.34, the “melanin production in NHEM cells, in words” value [2] was “increase in melanin production” and the “melanin, percentage relative stimulation with respect to the control” value ([3]; 1 μM SYST D17) was 315%. The “melanin production in pigmented reconstructed epidermises, in words” value ([3]; 1 μM and 3 μM, daily treatment) was “very large increase in melanin production”, the “melanin, percentage relative stimulation with respect to the control” value ([3]; second line, printed 1 μM SYST D17) was 356.25% and the “melanin production in NHEK+NHEM cells, in words” value ([4]; 1 μM) was “increase in melanin production”. For the same compound, the “melanin production in NHEKs+NHEMs compared with NHEMs alone and IBMX positive control, in words” value ([4]; mAEA 1 μM vs IBMX 200 μM) was “greater than in NHEMs alone, even exceeding that of the IBMX positive control”.

For “N-[(1S)-endo-1,3,3-trimethy-1-bicyclo[2.2.1]heptan-2-yl]-5-(4-choro-3-methylphenyl)-1-(4-methylbenzyl)pyrazole-3-carboxamide [SR2, reference compound]”, the “effect of receptor antagonist on the propigmenting effect of mAEA, in words” value [1] was “does not, on the other hand, prevent mAEA from having this effect”.
